From ChEMBL document CHEMBL4513139, “CO-ADD screening of University of Strathclyde (UK) compounds” come the findings set out here.

≈ marks a conversion by molar mass, not a printed value. Where “and” joins values, the source holds several entries; their conditions need not be identical. Equal entries are not always repeated.

The test system of one test is Klebsiella pneumoniae. As to the kind of experiment: microbe, parasite or virus in culture. The settings on record: ATCC 700603, 18 h, ASSAY_TEST Inhibition of Bacterial Growth, detection method Absorption (OD600), MEDIA CAMHB, plate type 384well, NBS, CORNING #3640.
The next test has as its system HEK293. Nature of the test: cells. The settings on record: ASSAY_TEST Inhibition of Cell Viability, detection method Resazurin, Fluorescence (ex560/em590), MEDIA DMEM with 10% FBS, plate type 384well, TC, CORNING #3712, time 18 hr. The format is functional, Homo sapiens, ATCC CRL1573.
Another test deals with Candida albicans. As to the kind of experiment: microbe, parasite or virus in culture. The settings on record: ATCC 90028, ASSAY_TEST Inhibition of Fungal Growth, detection method Absorption (OD530), plate type 384well, NBS, CORNING #3640.
For the next test, the system named is Acinetobacter baumannii. As to the kind of experiment: microbe, parasite or virus in culture. The settings on record: ATCC 19606, 18 h, ASSAY_TEST Inhibition of Bacterial Growth, detection method Absorption (OD600), MEDIA CAMHB, plate type 384well, NBS, CORNING #3640.
The test system of a further test is Escherichia coli. As to the kind of experiment: microbe, parasite or virus in culture. The settings on record: ATCC 25922, 18 h, ASSAY_TEST Inhibition of Bacterial Growth, detection method Absorption (OD600), MEDIA CAMHB, plate type 384well, NBS, CORNING #3640.
In a further test the test system is Pseudomonas aeruginosa. As to the kind of experiment: microbe, parasite or virus in culture. The settings on record: ATCC 27853, 18 h, ASSAY_TEST Inhibition of Bacterial Growth, detection method Absorption (OD600), MEDIA CAMHB, plate type 384well, NBS, CORNING #3640.
The next test concerns Staphylococcus aureus. As to the kind of experiment: microbe, parasite or virus in culture. The settings on record: ATCC 43300, 18 h, ASSAY_TEST Inhibition of Bacterial Growth, detection method Absorption (OD600), MEDIA CAMHB, plate type 384well, NBS, CORNING #3640.
The mark [1] stands for this setting: Homo sapiens, ATCC CRL1573, HEK293, read-out: CC50.

Description for Acinetobacter baumannii: Antibacterial activity against Acinetobacter baumannii ATCC 19606 (CO-ADD:GN_034); MIC in CAMBH media using NBS plates, by OD600
Description for Candida albicans: Antifungal activity against Candida albicans ATCC 90028 (CO-ADD:FG_001); MIC in YNB media using NBS plates, by OD630
Description for Cryptococcus neoformans: Antifungal activity against Cryptococcus neoformans H99 ATCC 208821 (CO-ADD:FG_002); MIC in YNB media using NBS plates, by Resazurin OD(600-570)
Description for Escherichia coli: Antibacterial activity against Escherichia coli ATCC 25922 (CO-ADD:GN_001); MIC in CAMBH media using NBS plates, by OD(600)
Description for Klebsiella pneumoniae: Antibacterial activity against Klebsiella pneumoniae MDR ATCC 70063 (CO-ADD:GN_003); MIC in CAMBH media using NBS plates, by OD(600)
Description for Pseudomonas aeruginosa: Antibacterial activity against Pseudomonas aeruginosa ATCC 27853 (CO-ADD:GN_042); MIC in CAMBH media using NBS plates, by OD(600)
Description for Staphylococcus aureus: Antibacterial activity against Staphylococcus aureus MRSA ATCC 43300 (CO-ADD:GP_020); MIC in CAMBH media, using NBS plates, by OD(600)

With `CC(=O)Nc1cc(C(=O)Nc2cc(C(=O)Nc3nc(C(=O)NCCCN(C)C)c(CCC(C)C)s3)n(C)c2)n(C)c1`, the MIC with Cryptococcus neoformans was 16 µg/mL; in the test on Klebsiella pneumoniae, greater than 32 µg/mL; against Candida albicans, greater than 32 µg/mL; against Acinetobacter baumannii it was greater than 32 µg/mL; against Escherichia coli, greater than 32 µg/mL; in the test on Pseudomonas aeruginosa, greater than 32 µg/mL. Besides, the MIC in the test on Staphylococcus aureus came to 16 µg/mL. Besides, the CC50 with HEK293 (setting [1]) is greater than 32 µg/mL.
As for `CN(C)CCNC(=O)c1cc(NC(=O)c2cc(NC(=O)c3ccc(/C=C/c4ccc(N(C)C)cc4)nc3)cn2C)cn1C.O=C(O)C(F)(F)F`, the MIC in the test with Klebsiella pneumoniae was greater than 32 µg/mL; against Candida albicans it was 1 µg/mL; against Acinetobacter baumannii it was greater than 32 µg/mL; with Escherichia coli, greater than 32 µg/mL; against Pseudomonas aeruginosa, greater than 32 µg/mL; against Staphylococcus aureus, 1 µg/mL. The CC50 with HEK293 (setting [1]) is 2.17 µg/mL.
On to `Cn1cc(NC(=O)c2ccc(/C=C/c3cnc4ccccc4c3)cc2)cc1C(=O)NCCN1CCOCC1.O=C(O)C(F)(F)F.O=C(O)C(F)(F)F`, for which the MIC is 32 µg/mL in the test on Cryptococcus neoformans; greater than 32 µg/mL in the test on Klebsiella pneumoniae; greater than 32 µg/mL against Candida albicans; greater than 32 µg/mL against Acinetobacter baumannii; greater than 32 µg/mL in the test with Escherichia coli; greater than 32 µg/mL against Pseudomonas aeruginosa. The same compound displayed an MIC against Staphylococcus aureus of 2 µg/mL. In the test on HEK293 (setting [1]), the half-maximal cytotoxic concentration (CC50) is 2.42 µg/mL.
On to `Cn1cc(NC(=O)c2ccc(/C=C/c3cnc4ccccc4c3)cc2)cc1C(=O)Nc1cc(C(=O)NCCN2CCOCC2)n(CCCc2ccccc2)c1.O=C(O)C(F)(F)F.O=C(O)C(F)(F)F`, for which the MIC in the test on Cryptococcus neoformans was 4 µg/mL and 8 µg/mL; against Klebsiella pneumoniae, greater than 32 µg/mL; against Candida albicans, greater than 32 µg/mL; against Acinetobacter baumannii, greater than 32 µg/mL; with Escherichia coli it was greater than 32 µg/mL; with Pseudomonas aeruginosa, greater than 32 µg/mL. The compound also displayed an MIC in the test on Staphylococcus aureus greater than 32 µg/mL.
For the compound `Cn1cc(NC(=O)c2ccc(/C=C/c3cnc4ccccc4c3)cc2)cc1C(=O)Nc1cc(C(=O)NCCN2CCOCC2)n(CCCN=[N+]=[N-])c1.O=C(O)C(F)(F)F.O=C(O)C(F)(F)F`, the MIC against Cryptococcus neoformans was 16 µg/mL; against Klebsiella pneumoniae it was greater than 32 µg/mL; in the test with Candida albicans, greater than 32 µg/mL; in the test with Acinetobacter baumannii, greater than 32 µg/mL; in the test with Escherichia coli it was greater than 32 µg/mL; in the test with Pseudomonas aeruginosa, greater than 32 µg/mL. This compound registered an MIC against Staphylococcus aureus of 2 µg/mL. Further, in the test on HEK293 (setting [1]), the CC50 was 4.48 µg/mL.
Take `COc1ccc(C(=N)Nc2cc(C(=O)Nc3nc(C(=O)NCCN4CCOCC4)c(CCc4ccccc4)s3)n(C)c2)cc1.O=C(O)C(F)(F)F.O=C(O)C(F)(F)F`: the MIC is greater than 32 µg/mL in the test with Klebsiella pneumoniae; greater than 32 µg/mL against Candida albicans; greater than 32 µg/mL in the test with Acinetobacter baumannii; greater than 32 µg/mL in the test with Escherichia coli; greater than 32 µg/mL against Pseudomonas aeruginosa; 8 µg/mL with Staphylococcus aureus. The CC50 in the test on HEK293 (setting [1]) came to 8.88 µg/mL.
As to `Cn1cc(NC(=O)c2cc(NC(=O)c3ccc(/C=C/c4cnc5ccccc5c4)cc3)cn2C)cc1C(=O)NCCC(=N)N.O=C(O)C(F)(F)F.O=C(O)C(F)(F)F`, the MIC was 8 µg/mL with Cryptococcus neoformans; greater than 32 µg/mL against Klebsiella pneumoniae; 32 µg/mL with Candida albicans; greater than 32 µg/mL with Acinetobacter baumannii; greater than 32 µg/mL in the test on Escherichia coli; greater than 32 µg/mL in the test on Pseudomonas aeruginosa. This compound also showed an MIC against Staphylococcus aureus greater than 32 µg/mL. Moreover, the CC50 with HEK293 (setting [1]) is 6.55 µg/mL.
On to `Cn1cc(NC(=O)c2cc(NC(=O)c3ccc(/C=C/c4ccc5nonc5c4)cc3)cn2C)cc1C(=O)NCCN1CCOCC1.O=C(O)C(F)(F)F`, for which the MIC in the test with Cryptococcus neoformans, with Klebsiella pneumoniae, against Candida albicans, with Acinetobacter baumannii, against Escherichia coli and in the test on Pseudomonas aeruginosa was greater than 32 µg/mL throughout. The MIC in the test on Staphylococcus aureus is greater than 32 µg/mL.
Turning to `CC(C)CCc1sc(NC(=O)c2cc(NC(=O)c3cc(NC(=N)N)cn3C)cn2C)nc1C(=O)NCCCN(C)C.O=C(O)C(F)(F)F.O=C(O)C(F)(F)F`, the MIC was 4 µg/mL against Cryptococcus neoformans; greater than 32 µg/mL against Klebsiella pneumoniae; greater than 32 µg/mL against Candida albicans; greater than 32 µg/mL against Acinetobacter baumannii; greater than 32 µg/mL against Escherichia coli; greater than 32 µg/mL with Pseudomonas aeruginosa. Moreover, the MIC in the test on Staphylococcus aureus worked out at 16 µg/mL. Also, the cytotoxic concentration (CC50) with HEK293 (setting [1]) stood at 19.9 µg/mL.
Take `COc1cccc(/C=C/c2ccc(C(=O)Nc3cc(C(=O)Nc4cc(C(=O)NCCN5CCOCC5)n(C)c4)n(C)c3)cc2)c1.O=C(O)C(F)(F)F`: the MIC in the test on Klebsiella pneumoniae, against Candida albicans, against Acinetobacter baumannii, against Escherichia coli, against Pseudomonas aeruginosa and in the test with Staphylococcus aureus was greater than 32 µg/mL each time. In addition, the 50% cytotoxic concentration (CC50) with HEK293 amounted to 3.46 µg/mL; with HEK293 (setting [1]) it was 3.75 µg/mL.
`CN(C)CCNC(=O)c1cc(NC(=O)c2cc(NC(=O)c3ccc(/C=C/c4ccc(N(C)C)cc4)nc3)cn2C)cn1C.O=C(O)C(F)(F)F.O=C(O)C(F)(F)F`: the MIC in the test on Cryptococcus neoformans is 2 µg/mL; in the test on Klebsiella pneumoniae, greater than 32 µg/mL; against Candida albicans it was 4 µg/mL; against Acinetobacter baumannii it was greater than 32 µg/mL; in the test with Escherichia coli, greater than 32 µg/mL; against Pseudomonas aeruginosa, greater than 32 µg/mL. This compound also displayed an MIC against Staphylococcus aureus of 2 µg/mL. In addition, the CC50 with HEK293 (setting [1]) is 1.13 µg/mL.
Consider `Cn1cc(NC(=O)c2cc(NC=O)cn2C)cc1C(=O)NCCC(=N)N.O=C(O)C(F)(F)F`, for which the MIC against Cryptococcus neoformans, in the test on Klebsiella pneumoniae, against Candida albicans, with Acinetobacter baumannii, against Escherichia coli and against Pseudomonas aeruginosa was greater than 32 µM each time. The same compound returned an MIC in the test on Staphylococcus aureus greater than 32 µM. In addition, the CC50 with HEK293 (setting [1]) was greater than 32 µg/mL.
On to `COc1ccc(C(=N)Nc2cc(C(=O)Nc3nc(C(=O)NCCN4CCOCC4)c(CCc4ccccc4)s3)n(C)c2)cc1`, for which the MIC in the test on Cryptococcus neoformans was 1 µg/mL; with Klebsiella pneumoniae, greater than 32 µg/mL; against Candida albicans it was greater than 32 µg/mL; in the test on Acinetobacter baumannii, greater than 32 µg/mL; against Escherichia coli, greater than 32 µg/mL; against Pseudomonas aeruginosa, greater than 32 µg/mL. The same compound gave an MIC in the test with Staphylococcus aureus of 16 µg/mL. The cytotoxic concentration (CC50) in the test with HEK293 (setting [1]) worked out at 7.47 µg/mL (≈ 12.1 µM).
On to `Cn1cc(NC(=O)c2cc(NC(=O)c3ccc(/C=C/c4cnc5ccccc5c4)cc3)cn2C)cc1C(=O)NCCN1CCCC1=O.O=C(O)C(F)(F)F`, for which the MIC in the test on Cryptococcus neoformans, in the test on Klebsiella pneumoniae, against Candida albicans, in the test with Acinetobacter baumannii, in the test on Escherichia coli and against Pseudomonas aeruginosa was greater than 32 µg/mL throughout. The compound also displayed an MIC against Staphylococcus aureus greater than 32 µg/mL. Further, in the test with HEK293 (setting [1]), the 50% cytotoxic concentration (CC50) amounted to 12.7 µg/mL.
Consider `Cn1cc(NC(=O)c2cc(NC(=N)c3cnc4ccccc4c3)cn2C)cc1C(=O)NCCC(=N)N.O=C(O)C(F)(F)F.O=C(O)C(F)(F)F.O=C(O)C(F)(F)F`, for which the MIC in the test on Cryptococcus neoformans, with Klebsiella pneumoniae, with Candida albicans, against Acinetobacter baumannii, in the test with Escherichia coli and in the test with Pseudomonas aeruginosa was greater than 32 µg/mL throughout. This compound returned an MIC in the test with Staphylococcus aureus greater than 32 µg/mL. The 50% cytotoxic concentration (CC50) in the test on HEK293 (setting [1]) is greater than 32 µg/mL.
As to `Cn1cc(NC(=O)c2ccc(/C=C/c3cnc4ccccc4c3)cc2)cc1C(=O)Nc1nc(C(=O)NCCN2CCOCC2)c(C2CCCCC2)s1.O=C(O)C(F)(F)F.O=C(O)C(F)(F)F`, the MIC against Cryptococcus neoformans, against Klebsiella pneumoniae, with Candida albicans, against Acinetobacter baumannii, in the test on Escherichia coli and in the test on Pseudomonas aeruginosa was greater than 32 µg/mL each time. The MIC against Staphylococcus aureus was greater than 32 µg/mL. Besides, the CC50 in the test on HEK293 (setting [1]) is greater than 32 µg/mL.
As to `Cn1cc(NC(=O)c2cc(NC(=O)c3ccc(/C=C/C4CC4)cc3)cn2C)cc1C(=O)NCCN1CCOCC1.O=C(O)C(F)(F)F`, the MIC with Cryptococcus neoformans is 32 µg/mL; in the test on Klebsiella pneumoniae, greater than 32 µg/mL; with Candida albicans it was greater than 32 µg/mL; against Acinetobacter baumannii, greater than 32 µg/mL; against Escherichia coli, greater than 32 µg/mL; in the test on Pseudomonas aeruginosa, greater than 32 µg/mL. The compound also came in with an MIC in the test with Staphylococcus aureus greater than 32 µg/mL.
Turning to `COc1ccc(/C=C/c2ccc(C(=O)Nc3cc(C(=O)Nc4nc(C(=O)NCCN5CCOCC5)c(C5CCCCC5)s4)n(C)c3)cn2)cc1.O=C(O)C(F)(F)F.O=C(O)C(F)(F)F`, the MIC in the test with Cryptococcus neoformans, in the test with Klebsiella pneumoniae, against Candida albicans, against Acinetobacter baumannii, against Escherichia coli and against Pseudomonas aeruginosa was greater than 32 µM each time. The compound also showed an MIC in the test with Staphylococcus aureus greater than 32 µM. In addition, the CC50 in the test on HEK293 (setting [1]) stood at 4.56 µg/mL.
Consider `COc1ccc(/C=C/c2ccc(C(=O)Nc3cc(C(=O)Nc4nc(C(=O)NCCN5CCOCC5)c(CCc5ccccc5)s4)n(C)c3)cn2)cc1.O=C(O)C(F)(F)F.O=C(O)C(F)(F)F`, for which the MIC against Cryptococcus neoformans, with Klebsiella pneumoniae, in the test with Candida albicans, with Acinetobacter baumannii, against Escherichia coli and against Pseudomonas aeruginosa was greater than 32 µg/mL throughout. This compound also displayed an MIC in the test on Staphylococcus aureus greater than 32 µg/mL. Moreover, in the test with HEK293 (setting [1]), the CC50 was greater than 32 µg/mL.
